Experimental data: the supplement of paper PMC4977894
± gives the standard deviation of the averaged measurements.

Columns and labels:
[1] = system: Homo sapiens (human subject panel, olfactory perception); assay: perceived odor intensity rating (rating 0-100); higher = stronger perceived smell
Outline: (§1)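 Values for familiarity, intensity and pleasantness are averaged over subjects. The panel of 55 healthy people aged 18–50 excluded the six lowest performers and rated each paraffin-oil dilution of a molecule at high and low concentrations. Ratings were made only for stimuli the subject reported smelling, on a slider converted to a 0–100 scale.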

[2] = system: Homo sapiens (human subject panel, olfactory perception); assay: perceived odor familiarity rating (rating 0-100); higher = more familiar
Outline: as §1

[3] = system: Homo sapiens (human subject panel, olfactory perception); assay: perceived odor pleasantness rating (rating 0-100); higher = more pleasant
Outline: as §1

[4] = odor dilution in paraffin oil: 1/1,000
[5] = odor dilution in paraffin oil: 1/100,000
[6] = odor dilution in paraffin oil: 1/10
[7] = odor dilution in paraffin oil: 1/10,000,000

SMILES	perceived odor intensity rating [1, 4]	perceived odor intensity rating [1, 5]	perceived odor familiarity rating [2, 4]	perceived odor familiarity rating [2, 5]	perceived odor pleasantness rating [3, 4]	perceived odor pleasantness rating [3, 5]	perceived odor intensity rating [1, 6]	perceived odor familiarity rating [2, 6]	perceived odor pleasantness rating [3, 6]	perceived odor intensity rating [1, 7]	perceived odor familiarity rating [2, 7]	perceived odor pleasantness rating [3, 7]
COC(=O)c1ccccc1O [methyl salicylate]	71.9 ± 22	16.7 ± 22	63.9 ± 32	38.1 ± 32	60.8 ± 26	56.7 ± 21						
CSC [methyl sulfide]	56.4 ± 35	58.8 ± 32	43.7 ± 34	47.3 ± 32	33.6 ± 27	33.4 ± 27						
CC(=O)c1c(C)c([N+](=O)[O-])c(C(C)(C)C)c([N+](=O)[O-])c1C [musk ketone]	49.3 ± 32		50.2 ± 27		63.1 ± 25		48.1 ± 34	53 ± 30	65.2 ± 23			
CCCCCCCCCO [nonanol]	66.4 ± 26	28.5 ± 30	46.9 ± 29	35.6 ± 31	35.8 ± 24	42.9 ± 25						
COc1ccccc1C=O [o-Anisaldehyde (replicate)]	72.1 ± 23	36 ± 32	50.7 ± 31	46 ± 29	40.8 ± 28	40.3 ± 24						
COc1ccccc1C=O [o-Anisaldehyde]	70 ± 25	38.5 ± 27	45.8 ± 27	41.2 ± 27	32 ± 22	38 ± 22						
Cc1ccccc1C=O [o-Tolualdehyde]	78.1 ± 21	37.2 ± 31	58.9 ± 32	49.1 ± 31	52.7 ± 30	60.2 ± 24						
Cc1ccccc1S [o-Toluenethiol]		72.8 ± 24		54.8 ± 28		24.8 ± 24				30.2 ± 31	36.9 ± 24	47.9 ± 18
CCCCCCCC=O [octanal]	66.7 ± 26	55 ± 28	50.5 ± 31	62.9 ± 29	33.1 ± 22	65 ± 25						
CCCCCCCCO [octanol]	65.6 ± 26	25 ± 27	51.7 ± 33	38.3 ± 26	49.9 ± 28	46.2 ± 24						
COc1ccc(C=O)cc1 [p-Anisaldehyde]	71.2 ± 22	45.9 ± 31	54.5 ± 30	49.2 ± 32	60 ± 25	69 ± 21						
CC(=O)Oc1ccc(C)cc1 [p-Tolyl acetate]	72.6 ± 19	60.9 ± 28	59.6 ± 28	46.8 ± 31	47 ± 26	29 ± 25						
Cc1ccc(O)cc1 [p-cresol]	79 ± 20	68 ± 30	55 ± 33	54.1 ± 31	32.3 ± 29	31.6 ± 26						
Cc1ccc(C(C)C)cc1 [para-cymene]	66.4 ± 28		55.8 ± 32		47.4 ± 26		83.7 ± 15	54.7 ± 32	37 ± 28			
CCCCCO [pentanol]	68.4 ± 28	31.2 ± 32	46 ± 30	36.6 ± 28	23.9 ± 23	41.9 ± 26						
CCCCCOC(C)=O [pentyl acetate]	64.8 ± 30	42.6 ± 28	58.2 ± 33	45.2 ± 28	57.5 ± 32	57.6 ± 23						
O=Cc1ccc2c(c1)OCO2 [piperonal]	42.5 ± 29		54.6 ± 30		72 ± 20		69.3 ± 22	64.5 ± 27	70.9 ± 23			
CCCO [propanol]	28.7 ± 28	26.8 ± 28	30.3 ± 21	48.1 ± 32	49.7 ± 20	50.1 ± 21						
CCC(=O)O [propionic acid (replicate)]		38.6 ± 32		37.3 ± 30		38.7 ± 20				7.72 ± 8.4	44.1 ± 30	36.7 ± 25
CCC(=O)O [propionic acid]		34.4 ± 33		35.3 ± 31		39.5 ± 25				20.5 ± 27	36.8 ± 25	45.2 ± 24
